# According to patent US4728509A, “Aqueous liquid preparation” (Takeda Chemical Industries, Ltd., priority 1985, dated 1988):
# Read-outs that look alike come from different tables or passages of the source.
# Tests used:
# [1] = Solubility test of compound (a) with and without solubilizers (Experimental Example 1; HPLC of filtrate); settings: phosphate buffer, Solubility of Compound (a), 48 hours
# Method: Solubility tests of the compound (a) (2-amino-7-isopropyl-5-oxo-5H-[1]-benzopyrano[2,3-b]pyridine-3-carboxylic acid) employing the solubilizers of this invention and, for comparison, employing various conventional solubilizers were performed.
# The solubility was measured by the following manner:
# An excess amount of the compound (a) was added to a given volume of a phosphate buffer, the mixture was sufficiently stirred, then the pH was adjusted to a given level, the mixture was allowed to stand at room temperature (25° C.) for 48 hours, the resultant was subjected to filtration with 0.45μ membrane filter, followed by measuring the concentration of the compound (a) in the filtrate by means of high performance liquid chromatography.
# [2] = Solubility of compound (a); assay type: physicochemical
# [3] = Stability test of compound (a) in solution, remaining ratio at 60° C. (Experimental Example 2); assay type: physicochemical; settings: phosphate buffer, pH 7.5±0.1; for remaining at 1344 h: 60° C. after 8 weeks
# Method: The stability of the compound (a) was tested by the following manner.
# At first, the stability of the compound (a) without any adjuvant was tested for comparison.
# Two samples were prepared by dissolving 100 mg and 250 mg each portion of the compound (a) in phosphate buffer. To each of the solutions was added a solution of sodium hydroxide to adjust the pH to 7.5±0.1, followed by addition of purified water to make the whole volume 100 ml, provided that the solution of 2.5 mg/ml was prepared at 40° C. Each solution was filled in a glass bottle, which was stored at 60° C. for evaluation of the stability.
# The results were shown in Table 2 as remaining ratio (%).
# Next, the effect of improving the stability of the compound (a), when a solubilizer of this invention was added to the solution containing the compound (a), was examined.
# To each sample was added a given amount of a solubilizer as specified in the table, followed by working up in a similar manner to the above (pH 7.5±0.1) for evaluation of the stability.
# The results were shown in Table 3 as remaining ratio (%).
structure (smiles),measurement,setting,value
"CC(C)c1ccc2oc3nc(N)c(C(=O)O)cc3c(=O)c2c1 [Compound (a), 2-amino-7-isopropyl-5-oxo-5H-[1]-benzopyrano[2,3-b]pyridine-3-carboxylic acid]",solubility at 48 h,"[1]; pH 6, aqueous buffer, Caffeine 5 mg/ml, pH 6.0, 25° C.",660 µg/mL
same,solubility at 48 h,"[1]; pH 6, aqueous buffer, Caffeine 10 mg/ml, pH 6.0, 25° C.",1650 µg/mL
same,solubility at 48 h,"[1]; pH 6, aqueous buffer, Control, no solubilizer, pH 6.0, 25° C.",20 µg/mL
same,solubility at 48 h,"[1]; pH 6, aqueous buffer, Polyvinylpyrrolidone (average molecular weight 40000) 10 mg/ml, pH 6.0, 25° C.",120 µg/mL
same,solubility at 48 h,"[1]; pH 6, aqueous buffer, Polyvinylpyrrolidone (average molecular weight 40000) 50 mg/ml, pH 6.0, 25° C.",320 µg/mL
same,solubility at 48 h,"[1]; pH 6, aqueous buffer, Polyvinylpyrrolidone (average molecular weight 40000) 100 mg/ml, pH 6.0, 25° C.",1590 µg/mL
same,solubility at 48 h,"[1]; pH 6, aqueous buffer, Sodium benzoate 20 mg/ml, pH 6.0, 25° C.",40 µg/mL
same,solubility at 48 h,"[1]; pH 6, aqueous buffer, Tween 80 10 mg/ml, pH 6.0, 25° C.",80 µg/mL
same,solubility at 48 h,"[1]; pH 6, aqueous buffer, β-Cyclodextrin 10 mg/ml, pH 6.0, 25° C.",720 µg/mL
same,solubility at 48 h,"[1]; pH 6.5, aqueous buffer, Caffeine 5 mg/ml, pH 6.5, 25° C.",1500 µg/mL
same,solubility at 48 h,"[1]; pH 6.5, aqueous buffer, Caffeine 10 mg/ml, pH 6.5, 25° C.",2670 µg/mL
same,solubility at 48 h,"[1]; pH 6.5, aqueous buffer, Control, no solubilizer, pH 6.5, 25° C.",80 µg/mL
same,solubility at 48 h,"[1]; pH 6.5, aqueous buffer, Isoniazid 10 mg/ml, pH 6.5, 25° C.",850 µg/mL
same,solubility at 48 h,"[1]; pH 6.5, aqueous buffer, Nicotinic acid amide 10 mg/ml, pH 6.5, 25° C.",820 µg/mL
same,solubility at 48 h,"[1]; pH 6.5, aqueous buffer, Polyvinylpyrrolidone (average molecular weight 40000) 10 mg/ml, pH 6.5, 25° C.",420 µg/mL
same,solubility at 48 h,"[1]; pH 6.5, aqueous buffer, Polyvinylpyrrolidone (average molecular weight 40000) 50 mg/ml, pH 6.5, 25° C.",1230 µg/mL
same,solubility at 48 h,"[1]; pH 6.5, aqueous buffer, Polyvinylpyrrolidone (average molecular weight 40000) 100 mg/ml, pH 6.5, 25° C.",4630 µg/mL
same,solubility at 48 h,"[1]; pH 6.5, aqueous buffer, Sodium benzoate 20 mg/ml, pH 6.5, 25° C.",290 µg/mL
same,solubility at 48 h,"[1]; pH 6.5, aqueous buffer, Tween 80 10 mg/ml, pH 6.5, 25° C.",470 µg/mL
same,solubility at 48 h,"[1]; pH 6.5, aqueous buffer, β-Cyclodextrin 10 mg/ml, pH 6.5, 25° C.",1400 µg/mL
same,solubility at 48 h,"[1]; pH 7, aqueous buffer, Caffeine 5 mg/ml, pH 7.0, 25° C.",3720 µg/mL
same,solubility at 48 h,"[1]; pH 7, aqueous buffer, Caffeine 10 mg/ml, pH 7.0, 25° C.",7050 µg/mL
same,solubility at 48 h,"[1]; pH 7, aqueous buffer, Control, no solubilizer, pH 7.0, 25° C.",330 µg/mL
same,solubility at 48 h,"[1]; pH 7, aqueous buffer, Isoniazid 10 mg/ml, pH 7.0, 25° C.",1330 µg/mL
same,solubility at 48 h,"[1]; pH 7, aqueous buffer, Nicotinic acid amide 10 mg/ml, pH 7.0, 25° C.",1210 µg/mL
same,solubility at 48 h,"[1]; pH 7, aqueous buffer, Polyvinylpyrrolidone (average molecular weight 40000) 10 mg/ml, pH 7.0, 25° C.",1060 µg/mL
same,solubility at 48 h,"[1]; pH 7, aqueous buffer, Polyvinylpyrrolidone (average molecular weight 40000) 50 mg/ml, pH 7.0, 25° C.",3230 µg/mL
same,solubility at 48 h,"[1]; pH 7, aqueous buffer, Polyvinylpyrrolidone (average molecular weight 40000) 100 mg/ml, pH 7.0, 25° C.",10000 µg/mL
same,solubility at 48 h,"[1]; pH 7, aqueous buffer, Sodium benzoate 20 mg/ml, pH 7.0, 25° C.",420 µg/mL
same,solubility at 48 h,"[1]; pH 7, aqueous buffer, β-Cyclodextrin 10 mg/ml, pH 7.0, 25° C.",2300 µg/mL
same,solubility at 48 h,"[1]; pH 7.5, aqueous buffer, Caffeine 5 mg/ml, pH 7.5, 25° C.",7440 µg/mL
same,solubility at 48 h,"[1]; pH 7.5, aqueous buffer, Caffeine 10 mg/ml, pH 7.5, 25° C.",9210 µg/mL
same,solubility at 48 h,"[1]; pH 7.5, aqueous buffer, Control, no solubilizer, pH 7.5, 25° C.",1050 µg/mL
same,solubility at 48 h,"[1]; pH 7.5, aqueous buffer, Isoniazid 10 mg/ml, pH 7.5, 25° C.",1560 µg/mL
same,solubility at 48 h,"[1]; pH 7.5, aqueous buffer, Nicotinic acid amide 10 mg/ml, pH 7.5, 25° C.",1530 µg/mL
same,solubility at 48 h,"[1]; pH 7.5, aqueous buffer, Polyvinylpyrrolidone (average molecular weight 40000) 10 mg/ml, pH 7.5, 25° C.",3150 µg/mL
same,solubility at 48 h,"[1]; pH 7.5, aqueous buffer, Polyvinylpyrrolidone (average molecular weight 40000) 50 mg/ml, pH 7.5, 25° C.",10400 µg/mL
same,solubility at 48 h,"[1]; pH 7.5, aqueous buffer, Polyvinylpyrrolidone (average molecular weight 40000) 100 mg/ml, pH 7.5, 25° C.",18500 µg/mL
same,solubility at 48 h,"[1]; pH 7.5, aqueous buffer, Sodium benzoate 20 mg/ml, pH 7.5, 25° C.",1060 µg/mL
same,solubility at 48 h,"[1]; pH 7.5, aqueous buffer, Tween 80 10 mg/ml, pH 7.5, 25° C.",1180 µg/mL
same,solubility at 48 h,"[1]; pH 7.5, aqueous buffer, β-Cyclodextrin 10 mg/ml, pH 7.5, 25° C.",4390 µg/mL
same,amount of compound (a) dissolved by the aqueous liquid preparation of this invention,"[2]; aqueous liquid preparation of this invention, pH 7.2-7.8",≥ 3 mg/mL
same,solubility,"[2]; neutral to alkaline region (pH 7.2-7.8), read-out: solubility",~1100 µg/mL
same,solubility,"[2]; water, 25° C., read-out: solubility in water",~10 µg/mL
same,solubility,"[2]; water, pH 7.5, cold chamber (5° C.), read-out: solubility in water",300 µg/mL
same,remaining at 168 h,"[3]; pH 7.5, compound (a) 1.0 mg/ml, PVP (MW 40,000) 20 mg/ml, 60° C. after 1 week",99.5%
same,remaining at 336 h,"[3]; pH 7.5, compound (a) 1.0 mg/ml, PVP (MW 40,000) 20 mg/ml, 60° C. after 2 weeks",99.2%
same,remaining at 672 h,"[3]; pH 7.5, compound (a) 1.0 mg/ml, PVP (MW 40,000) 20 mg/ml, 60° C. after 4 weeks",98.4%
same,remaining at 1344 h,"[3]; pH 7.5, compound (a) 1.0 mg/ml, PVP (MW 40,000) 20 mg/ml",98.1%
same,remaining at 168 h,"[3]; pH 7.5, compound (a) 2.5 mg/ml, PVP (MW 40,000) 50 mg/ml, 60° C. after 1 week",98.9%
same,remaining at 336 h,"[3]; pH 7.5, compound (a) 2.5 mg/ml, PVP (MW 40,000) 50 mg/ml, 60° C. after 2 weeks",99.5%
same,remaining at 672 h,"[3]; pH 7.5, compound (a) 2.5 mg/ml, PVP (MW 40,000) 50 mg/ml, 60° C. after 4 weeks",99.1%
same,remaining at 1344 h,"[3]; pH 7.5, compound (a) 2.5 mg/ml, PVP (MW 40,000) 50 mg/ml",97%
same,remaining at 168 h,"[3]; pH 7.5, compound (a) 5.0 mg/ml, PVP (MW 40,000) 10 mg/ml + caffeine 10 mg/ml, 60° C. after 1 week",98.9%
same,remaining at 336 h,"[3]; pH 7.5, compound (a) 5.0 mg/ml, PVP (MW 40,000) 10 mg/ml + caffeine 10 mg/ml, 60° C. after 2 weeks",99.5%
same,remaining at 672 h,"[3]; pH 7.5, compound (a) 5.0 mg/ml, PVP (MW 40,000) 10 mg/ml + caffeine 10 mg/ml, 60° C. after 4 weeks",98.1%
same,remaining at 1344 h,"[3]; pH 7.5, compound (a) 5.0 mg/ml, PVP (MW 40,000) 10 mg/ml + caffeine 10 mg/ml",98.2%
same,remaining at 168 h,"[3]; pH 7.5, compound (a) 10.0 mg/ml, PVP (MW 40,000) 50 mg/ml + β-CD 10 mg/ml, 60° C. after 1 week",98.7%
same,remaining at 336 h,"[3]; pH 7.5, compound (a) 10.0 mg/ml, PVP (MW 40,000) 50 mg/ml + β-CD 10 mg/ml, 60° C. after 2 weeks",100%
same,remaining at 672 h,"[3]; pH 7.5, compound (a) 10.0 mg/ml, PVP (MW 40,000) 50 mg/ml + β-CD 10 mg/ml, 60° C. after 4 weeks",98.3%
same,remaining at 1344 h,"[3]; pH 7.5, compound (a) 10.0 mg/ml, PVP (MW 40,000) 50 mg/ml + β-CD 10 mg/ml",97.3%
same,remaining at 672 h,"[3]; pH 7.5, no adjuvant, compound (a) 1.0 mg/ml, 60° C. after four weeks",85.4%
same,remaining at 168 h,"[3]; pH 7.5, no adjuvant, compound (a) 1.0 mg/ml, 60° C. after one week",99.2%
same,remaining at 336 h,"[3]; pH 7.5, no adjuvant, compound (a) 1.0 mg/ml, 60° C. after two weeks",97.2%
same,remaining at 672 h,"[3]; pH 7.5, no adjuvant, compound (a) 2.5 mg/ml, 60° C. after four weeks",66.8%
same,remaining at 168 h,"[3]; pH 7.5, no adjuvant, compound (a) 2.5 mg/ml, 60° C. after one week",92.1%
same,remaining at 336 h,"[3]; pH 7.5, no adjuvant, compound (a) 2.5 mg/ml, 60° C. after two weeks",80.5%
